Holding throughout (experiment): MIC, microdilution broth method (NCCLS)
Common to all, as to assay type: cell-based
Common to all, as to details: 35° C., 16-20 hours
In general terms: Dilution methods test growth across graded concentrations, often in twofold steps.

The subject of one experiment is S. pneumoniae ATCC49619. An outline of the steps:
(§1)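 NCCLS microdilution method in cation-adjusted Mueller-Hinton broth, serial two-fold dilutions, final inoculum approximately 5×10^4 CFU/well. MIC read after 16-20 hours' incubation at 35° C.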

The test system of the next experiment is H. influenzae ATCC49247. The gist of the method: as §1
For the next experiment, the system named is E. faecalis ATCC29212. An outline of the steps:
as §1

A further experiment has as its system E. coli OC2605. An outline of the steps: as §1
The subject of the next experiment is S. aureus ATCC29213. The gist of the method:
as §1

Values after ≈ are worked out from the molar mass of the structure shown.

Turning to `CC[C@H]1OC(=O)[C@H](C)C(=O)[C@H](C)[C@@H](O[C@@H]2O[C@H](C)C[C@H](N(C)C)[C@H]2O)[C@](C)(OC(=O)NNCc2ccc(-c3ncccn3)cc2)C[C@@H](C)C(=O)[C@H](C)[C@H]2NC(=O)O[C@@]21C` [Compound 676], in the experiment on S. pneumoniae ATCC49619, the “MIC (D: S. pneumoniae ATCC49619)” value was 0.03 µg/mL (≈ 0.0364 µM). In addition, the “MIC (E: H. influenzae ATCC49247)” value with H. influenzae ATCC49247 was 4 µg/mL (≈ 4.85 µM). Besides, in the experiment with E. faecalis ATCC29212, the “MIC (C: E. faecalis ATCC29212)” value was 0.12 µg/mL (≈ 0.145 µM). Moreover, in the experiment on E. coli OC2605, the “MIC (A: E. coli OC2605)” value was determined as 8 µg/mL (≈ 9.7 µM). The “MIC (B: S. aureus ATCC29213)” value in the experiment on S. aureus ATCC29213 was found to be 0.25 µg/mL (≈ 0.303 µM).
Taken in the same sequence, the figures for `CC[C@H]1OC(=O)[C@H](C)C(=O)[C@H](C)[C@@H](O[C@@H]2O[C@H](C)C[C@H](N(C)C)[C@H]2O)[C@](C)(OC(=O)NN(C)C/C=C/c2ccc(-c3ncccn3)cc2)C[C@@H](C)C(=O)[C@H](C)[C@H]2NC(=O)O[C@@]21C` [Compound 744] were 0.03 µg/mL (≈ 0.0347 µM), 8 µg/mL (≈ 9.25 µM), 0.25 µg/mL (≈ 0.289 µM), above 16 µg/mL and 0.25 µg/mL (≈ 0.289 µM).
For `CC[C@H]1OC(=O)[C@H](C)C(=O)[C@H](C)[C@@H](O[C@@H]2O[C@H](C)C[C@H](N(C)C)[C@H]2O)[C@](C)(OC(=O)NN(C)Cc2ccc(-c3ncccn3)cc2)C[C@@H](C)C(=O)[C@H](C)[C@H]2NC(=O)O[C@@]21C` [Compound 774], in that order: 0.06 µg/mL (≈ 0.0715 µM), 4 µg/mL (≈ 4.77 µM), 0.25 µg/mL (≈ 0.298 µM), above 16 µg/mL and 2 µg/mL (≈ 2.38 µM).
For `CC[C@H]1OC(=O)[C@H](C)C(=O)[C@H](C)[C@@H](O[C@@H]2O[C@H](C)C[C@H](N(C)C)[C@H]2O)[C@](C)(OC(=O)NN(C)CCc2ccc(-c3ncccn3)cc2)C[C@@H](C)C(=O)[C@H](C)[C@H]2NC(=O)O[C@@]21C` [Compound 803], the “MIC (D: S. pneumoniae ATCC49619)” value against S. pneumoniae ATCC49619 worked out at 0.03 µg/mL (≈ 0.0352 µM). The “MIC (E: H. influenzae ATCC49247)” value in the experiment on H. influenzae ATCC49247 is 4 µg/mL (≈ 4.69 µM). In addition, in the experiment on E. faecalis ATCC29212, the “MIC (C: E. faecalis ATCC29212)” value turned out to be 0.12 µg/mL (≈ 0.141 µM). Moreover, the “MIC (A: E. coli OC2605)” value against E. coli OC2605 was above 16 µg/mL. In the experiment on S. aureus ATCC29213, the “MIC (B: S. aureus ATCC29213)” value is 0.25 µg/mL (≈ 0.293 µM).
For `CC[C@H]1OC(=O)[C@H](C)C(=O)[C@H](C)[C@@H](O[C@@H]2O[C@H](C)C[C@H](N(C)C)[C@H]2O)[C@](C)(OC(=O)NN(CC)CCc2ccc(-c3ncccn3)cc2)C[C@@H](C)C(=O)[C@H](C)[C@H]2NC(=O)O[C@@]21C` [Compound 804], in that order: 0.03 µg/mL (≈ 0.0346 µM), 8 µg/mL (≈ 9.23 µM), 0.12 µg/mL (≈ 0.138 µM), above 16 µg/mL and 0.5 µg/mL (≈ 0.577 µM).
For `CC[C@H]1OC(=O)[C@H](C)C(=O)[C@H](C)[C@@H](O[C@@H]2O[C@H](C)C[C@H](N(C)C)[C@H]2O)[C@](C)(OC(=O)NNC/C=C/c2ccc(-c3ncccn3)cc2)C[C@@H](C)C(=O)[C@H](C)[C@H]2NC(=O)O[C@@]21C` [Compound 805], in that order: 0.06 µg/mL (≈ 0.0705 µM), 2 µg/mL (≈ 2.35 µM), 0.25 µg/mL (≈ 0.294 µM), 16 µg/mL (≈ 18.8 µM) and 0.25 µg/mL (≈ 0.294 µM).
For `CC[C@H]1OC(=O)[C@H](C)C(=O)[C@H](C)[C@@H](O[C@@H]2O[C@H](C)C[C@H](N(C)C)[C@H]2O)[C@](C)(OC(=O)NN(C/C=C/c2ccc(-c3ncccn3)cc2)C/C=C/c2ccc(-c3ncccn3)cc2)C[C@@H](C)C(=O)[C@H](C)[C@H]2NC(=O)O[C@@]21C` [Compound 806], in that order: 0.12 µg/mL (≈ 0.115 µM), 16 µg/mL (≈ 15.3 µM), 1 µg/mL (≈ 0.957 µM), above 16 µg/mL and 2 µg/mL (≈ 1.91 µM).
Take `CC[C@H]1OC(=O)[C@H](C)C(=O)[C@H](C)[C@@H](O[C@@H]2O[C@H](C)C[C@H](N(C)C)[C@H]2O)[C@](C)(OC(=O)NN2CCC(c3ccccc3)CC2)C[C@@H](C)C(=O)[C@H](C)[C@H]2NC(=O)O[C@@]21C` [Compound 807]: the MIC in the experiment with S. pneumoniae ATCC49619 (Streptococcus pneumoniae, read-out: MIC (D: S. pneumoniae ATCC49619)) is 0.12 µg/mL (≈ 0.15 µM); in the experiment on H. influenzae ATCC49247 (Haemophilus influenzae, read-out: MIC (E: H. influenzae ATCC49247)) it was 4 µg/mL (≈ 4.99 µM); in the experiment on E. faecalis ATCC29212 (Enterococcus faecalis), 1 µg/mL (≈ 1.25 µM); in the experiment with E. coli OC2605 (Escherichia coli) it was above 16 µg/mL; in the experiment with S. aureus ATCC29213 (Staphylococcus aureus, read-out: MIC (B: S. aureus ATCC29213)) it was 2 µg/mL (≈ 2.5 µM).

Source of the values: patent publication US6825170B2, “6-O-acyl ketolide antibacterials” (Ortho-McNeil Pharmaceutical, Inc., priority 2001, dated 2004).
